Source: patent US11905504B2, “Body cube and process for culturing tissue” (Government of the United States of America, as represented …, priority 2020, dated 2024)
Entries after “also recorded” stand apart in the source; their conditions may differ.

Columns and labels:
HepG2/C3A liver cells [1] = test: Cell viability stain of liver cells after 72 h co-culture in the body cube; format: cell-based, human; settings: 72 h four-tissue co-culture in body cube, 80 μL recirculating medium; compared to control without drug
HepG2/C3A liver cells [2] = format: cell-based
Procedure: After 24 h, the cell-loaded 3D scaffolds were aseptically transferred into the tissue chambers of the appropriate tissues chip. The chips were then placed on top of each other, so that the back of one tissue chamber closed the opening of the tissue chip below it. The tissue chip stack was then inserted into the holder. The two reservoirs of the cube were filled with 32.5 μL of EMEM (containing a volume fraction of 10% FBS) each, and the device was placed onto a rocker platform that tilted back and forth at an angle of 45°. The platform changed its tilt from 45° to −45° every 60 s continuously for 72 h. Culture medium was collected and replaced with fresh medium after 1 h, 16 h, 24 h, 40 h, 48 h, and 64 h. The total amount of blood surrogate (i.e. the amount of cell culture medium that we consider blood surrogate) inside the system consisted of 2×32.5 μL (medium in the reservoirs), plus 15 μL (medium inside the microfluidic channels that deliver medium to the tissue culture chambers).
To estimate cell death during co-culture, we measured AST concentrations in the cell culture medium recovered from the devices after 1 h, 16 h, 40 h and 64 h of co-culture. The AST activity was measured with an assay kit. Briefly, standard samples and medium samples were added to the 96 well plate. We then added 100 μL of working solution to each well and mixed both solutions by gently tapping the plate. The plate was then incubated inside a plate reader in the dark, at 37° C. […] We then selected the initial absorbance value inside the linear range and calculated the AST concentrations using the protocol given in the kit. The results are expressed as μg per million cells produced in relation to a 1 h baseline measurement.
Similar to the baseline experiments described above, we recovered cell cultures after 72 h of co-culture from the device.

HepG2/C3A liver cells [3] = test: Urea production in collected cell culture medium of the body cube; format: cell-based, human
HepG2/C3A liver cells [4] = test: Albumin synthesis by ELISA in cell culture medium of the body cube; format: cell-based, human; settings: drugs added to the cube; compared to control without drug

For `Cc1c(C)c2c(c(C)c1O)CCC(C)(COc1ccc(CC3SC(=O)NC3=O)cc1)O2` (stereo not shown) [troglitazone], the “cell viability in the liver chamber (viability stain, fluorescence images)” value (HepG2/C3A liver cells [1]) was “significant liver damage; also recorded: expected cell death; also recorded: significantly lowered cell viability”, the “cytosolic enzymes released vs cultures not exposed to drugs” value (HepG2/C3A liver cells [2]; after 40 h of exposure) was “significantly larger amounts” and the “cytosolic enzyme concentration in the medium vs control cultures” value (HepG2/C3A liver cells [2]; after 48 h) was “similar”. For the same molecule, the “AST in the cell culture medium” value (HepG2/C3A liver cells [2]; body cube co-culture, compared to control without drug) was “significantly higher; also recorded: temporary increase of AST”, the “metabolic activity of the tissues” value (HepG2/C3A liver cells [3]; body cube co-culture challenged with drug) was “decrease in metabolic activity” and the urea production (HepG2/C3A liver cells [3]; drugs added to the cube, compared to control without drug) was “decreased”. The albumin production (HepG2/C3A liver cells [4]) was “not albumin production was decreased”.
